“Also recorded” adds a separate entry of the source.
The compounds below were run against T1, TYK2 (Homo sapiens, UniProt P29597) (assay: TYK2 degradation in MOLT-4 cells (Western blot, TYK2 level relative to DMSO-treated cells)). Conditions: 24 hour treatment, PROTAC 1 plus pomalidomide (competing for CRBN binding).
T1 construct: MOLT-4 cells (ATCC CRL-1582) were acquired from ATCC and maintained in RPMI-1640 medium; host or cells: MOLT-4 cells
T1 sequence (P29597 whole entry): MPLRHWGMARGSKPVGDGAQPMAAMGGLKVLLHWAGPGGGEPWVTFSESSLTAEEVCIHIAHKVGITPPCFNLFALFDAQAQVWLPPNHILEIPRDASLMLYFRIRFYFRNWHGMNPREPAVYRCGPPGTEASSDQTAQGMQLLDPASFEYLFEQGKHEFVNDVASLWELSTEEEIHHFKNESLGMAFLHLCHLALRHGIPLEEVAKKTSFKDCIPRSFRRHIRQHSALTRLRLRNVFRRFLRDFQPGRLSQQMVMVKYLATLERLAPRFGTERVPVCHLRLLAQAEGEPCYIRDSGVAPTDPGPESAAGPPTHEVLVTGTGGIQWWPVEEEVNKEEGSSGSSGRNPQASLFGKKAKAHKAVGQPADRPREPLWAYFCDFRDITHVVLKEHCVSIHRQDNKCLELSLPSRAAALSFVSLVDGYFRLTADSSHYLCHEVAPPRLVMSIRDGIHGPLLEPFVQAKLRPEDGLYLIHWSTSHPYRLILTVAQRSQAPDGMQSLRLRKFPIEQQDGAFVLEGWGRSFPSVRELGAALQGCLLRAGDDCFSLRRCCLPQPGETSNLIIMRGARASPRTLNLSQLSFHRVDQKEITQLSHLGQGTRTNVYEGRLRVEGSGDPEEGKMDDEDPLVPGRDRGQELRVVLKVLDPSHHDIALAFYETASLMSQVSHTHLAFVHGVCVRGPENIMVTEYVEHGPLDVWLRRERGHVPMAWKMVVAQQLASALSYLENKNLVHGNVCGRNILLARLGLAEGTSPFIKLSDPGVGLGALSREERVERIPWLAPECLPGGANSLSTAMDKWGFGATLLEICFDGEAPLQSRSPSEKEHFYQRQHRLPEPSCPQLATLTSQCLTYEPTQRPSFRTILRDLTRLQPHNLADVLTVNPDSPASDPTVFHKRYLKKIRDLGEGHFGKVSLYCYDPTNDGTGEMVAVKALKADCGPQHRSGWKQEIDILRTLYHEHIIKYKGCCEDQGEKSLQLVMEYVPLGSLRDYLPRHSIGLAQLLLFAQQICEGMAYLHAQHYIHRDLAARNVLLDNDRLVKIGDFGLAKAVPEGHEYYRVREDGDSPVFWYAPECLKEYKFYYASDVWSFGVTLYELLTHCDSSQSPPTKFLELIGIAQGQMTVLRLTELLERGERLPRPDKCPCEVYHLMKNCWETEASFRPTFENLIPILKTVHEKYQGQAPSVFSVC
Type: cell-based
Protocol: With reference to FIGS. 2A-2B. MOLT-4 cells (ATCC CRL-1582) were acquired from ATCC and maintained in RPMI-1640 medium supplemented with 10% fetal bovine serum (ATCC 30-2020), the combination henceforth referred to as “media”. Cells were maintained according to ATCC, (see product sheet), including incubation at 37° C. with 5% C02 in air other than during brief manipulations in a cell culture hood or during centrifugation.
18-24 hours before compound treatment, cells growing for 2-3 days in a flask were centrifuged at 200×g for 8 min, the media was aspirated, and fresh media was used to resuspend the cells. Cells were then counted, diluted with fresh media, and seeded at 650,000-750,000 cells/ml in 6-well plates, with 2 ml of volume per well.
Compounds to be tested were solubilized and stored in dimethyl sulfoxide (DMSO) at 10 mM. Compounds were first diluted in DMSO and then media so that the DMSO concentration was identical across treatments and the final concentration of DMSO was below 0.1% (typically 0.04%). Cells in each well of a 6-well plate were treated by adding 0.5 ml of fresh media containing varying concentrations of compounds to be tested—or only DMSO as a “no treatment” control.
Cells were harvested 24 hours after treatment by collecting all volume from each well into labeled microfuge tubes followed by centrifugation at 200×g for 8 min. Cells were washed in 1 ml of phosphate buffered saline (DPBS; Gibco 141190144) and then 0.5 ml of DPBS by centrifugation (as above) and aspiration. Cell pellets were resuspended by pipetting up-and-down in 100 microliters of ice cold RIPA buffer (Thermo, 89900) supplemented with 1× protease inhibitor cocktail and 1×EDTA (Pierce, 87786) and 1× phosphatase inhibitor cocktail (Pierce, 78420). Cell extracts were incubated on ice for 10 min and then centrifuged at 21,130×g for 20 min in a microfuge. Supernatants were collected and protein concentration for each sample was determined using a BCA kit (Thermo, 23225). Each sample was then denatured by adding 4×LDS buffer (Invitrogen, NP0008) to 1× followed by heating at 95° C. for 5 minutes.
Proteins were separated by electrophoresis using a XCell4 Surelock Midi-Cell apparatus (Invitrogen) and then transferred to PVDF membranes within iBlot 2 Transfer Stacks (Invitrogen, IB24001) using an iBlot 2 system (Invitrogen). Membranes were cut horizontally at a 50 kDa molecular weight marker and each piece of membrane was blocked in TBS-T+5% non-fat dry milk (NFDM) for 1-24 hours. Membranes were then incubated with antibody to TYK2 (Cell Signaling Technologies, 14193) or GAPDH (Cell Signaling Technologies, 5174; as loading control) in TBS-T+1% NFDM for 1 hour. Membranes were washed four times in TBS-T for 10 min each time, and then incubated with a HRP-conjugated secondary antibody (Cell Signaling Technologies, 7074) in TBS-T+1% NFDM for one hour. Membranes were washed four times for 10 min in TBS-T. Membranes were then incubated with reagents according to the SuperSignal West Femto Kit (Thermo, 34095) for 1 min at room temperature. Membranes were then imaged using a Gel Doc XR+ system (BioRad).
Captured images were processed using Image Lab software (BioRad). Using the volume tool, band intensities within rectangles of equal area were determined with the local subtraction method. The effects of compounds on TYK2 levels were related to the level of TYK2 from cells treated with only DMSO (no compound).
With `CNC(=O)c1nnc(NC(=O)CCN2CCC(C3CN(c4ccc5c(c4)C(=O)N(C4CCC(=O)NC4=O)C5=O)C3)CC2)cc1Nc1cccc(-c2ncn(C)n2)c1OC` (stereo not shown) [PROTAC 1, 6-(3-(4-(1-(2-(2,6-Dioxopiperidin-3-yl)-1,3-dioxoisoindolin-5-yl)azetidin-3-yl)piperidin-1-yl)propanamido)-4-((2-methoxy-3-(1-methyl-1H-1,2,4-triazol-3-yl)phenyl)amino)-N-methylpyridazine-3-carboxamide] the “amount of TYK2 protein, normalized to GADPH, under competition with pomalidomide (FIG. 2B)” value was “reversal of the PROTAC effect; also recorded: significantly reduces extent of degradation”.

Same assay, conditions: 24 hour treatment, compound alone; PROTAC 1 at 100 nM
For `CNC(=O)c1nnc(NC(=O)CCN2CCC(C3CN(c4ccc5c(c4)C(=O)N(C4CCC(=O)NC4=O)C5=O)C3)CC2)cc1Nc1cccc(-c2ncn(C)n2)c1OC` (stereo not shown) [PROTAC 1, 6-(3-(4-(1-(2-(2,6-Dioxopiperidin-3-yl)-1,3-dioxoisoindolin-5-yl)azetidin-3-yl)piperidin-1-yl)propanamido)-4-((2-methoxy-3-(1-methyl-1H-1,2,4-triazol-3-yl)phenyl)amino)-N-methylpyridazine-3-carboxamide], the “amount of TYK2 protein, normalized to the amount of GADPH protein, detected in cell lysates (FIG. 2B)” value was “effective at 100 nM in reducing the amount of TYK2 protein; also recorded: shows degradation”. In the case of `Nc1cccc2c1C(=O)N(C1CCC(=O)NC1=O)C2=O` (stereo not shown) [pomalidomide, reference compound], the “amount of TYK2 protein, normalized to the amount of GADPH protein, detected in cell lysates (FIG. 2B)” value is reported as “does not significantly reduce the amount of TYK2 protein”.

Same assay, conditions: MOLT-4 cells, 24 hours after treatment, TYK2 level related to DMSO-only cells
For `CNC(=O)c1nnc(NC(=O)CCN2CCC(C3CN(c4ccc5c(c4)C(=O)N(C4CCC(=O)NC4=O)C5=O)C3)CC2)cc1Nc1cccc(-c2ncn(C)n2)c1OC` (stereo not shown) [PROTAC 1, 6-(3-(4-(1-(2-(2,6-Dioxopiperidin-3-yl)-1,3-dioxoisoindolin-5-yl)azetidin-3-yl)piperidin-1-yl)propanamido)-4-((2-methoxy-3-(1-methyl-1H-1,2,4-triazol-3-yl)phenyl)amino)-N-methylpyridazine-3-carboxamide], the “Tyk2 Degradation Score” value was “+ (25-50% degradation)”. In the case of `CNC(=O)c1nnc(NC(=O)CCN2CCN(c3ccc4c(c3)C(=O)N(C3CCC(=O)NC3=O)C4=O)CC2)cc1Nc1cccc(-c2ncn(C)n2)c1OC` (stereo not shown) [PROTAC 2, 6-(3-(4-(2-(2,6-Dioxopiperidin-3-yl)-1,3-dioxoisoindolin-5-yl)piperazin-1-yl)propanamido)-4-((2-methoxy-3-(1-methyl-1H-1,2,4-triazol-3-yl)phenyl)amino)-N-methylpyridazine-3-carboxamide], the “Tyk2 Degradation Score” value is reported as “— (< 25% degradation)”. `CNC(=O)c1nnc(NC(=O)CCN2CCC(CC3CN(c4ccc5c(c4)C(=O)N(C4CCC(=O)NC4=O)C5=O)C3)CC2)cc1Nc1cccc(-c2ncn(C)n2)c1OC` (stereo not shown) [PROTAC 3, 6-(3-(4-((1-(2-(2,6-Dioxopiperidin-3-yl)-1,3-dioxoisoindolin-5-yl)azetidin-3-yl)methyl)piperidin-1-yl)propanamido)-4-((2-methoxy-3-(1-methyl-1H-1,2,4-triazol-3-yl)phenyl)amino)-N-methylpyridazine-3-carboxamide] was tested, and the “Tyk2 Degradation Score” value was “++ (51-75% degradation)”. With `CNC(=O)c1nnc(NC(=O)CCN2CCN(c3cc(N4CCN(c5ccc6c(c5)C(=O)N(C5CCC(=O)NC5=O)C6=O)CC4)ncn3)CC2)cc1Nc1cccc(-c2ncn(C)n2)c1OC` (stereo not shown) [PROTAC 4, 6-(3-(4-(6-(4-(2-(2,6-Dioxopiperidin-3-yl)-1,3-dioxoisoindolin-5-yl)piperazin-1-yl)pyrimidin-4-yl)piperazin-1-yl)propanamido)-4-((2-methoxy-3-(1-methyl-1H-1,2,4-triazol-3-yl)phenyl)amino)-N-methylpyridazine-3-carboxamide] the “Tyk2 Degradation Score” value was “+ (25-50% degradation)”. `CNC(=O)c1nnc(NC(=O)CCN2CCC(COCC3CCN(c4ccc5c(c4)C(=O)N(C4CCC(=O)NC4=O)C5=O)CC3)CC2)cc1Nc1cccc(-c2ncn(C)n2)c1OC` (stereo not shown) [PROTAC 5, 6-(3-(4-(((1-(2-(2,6-Dioxopiperidin-3-yl)-1,3-dioxoisoindolin-5-yl)piperidin-4-yl)methoxy)methyl)piperidin-1-yl)propanamido)-4-((2-methoxy-3-(1-methyl-1H-1,2,4-triazol-3-yl)phenyl)amino)-N-methylpyridazine-3-carboxamide] was tested, and the “Tyk2 Degradation Score” value was “+ (25-50% degradation)”. In the case of `CNC(=O)c1nnc(NC(=O)CCNCC2CCN(c3ccc4c(c3)C(=O)N(C3CCC(=O)NC3=O)C4=O)CC2)cc1Nc1cccc(-c2ncn(C)n2)c1OC` (stereo not shown) [PROTAC 6, 6-(3-(((1-(2-(2,6-Dioxopiperidin-3-yl)-1,3-dioxoisoindolin-5-yl)piperidin-4-yl)methyl)amino)propanamido)-4-((2-methoxy-3-(1-methyl-1H-1,2,4-triazol-3-yl)phenyl)amino)-N-methylpyridazine-3-carboxamide], the “Tyk2 Degradation Score” value is reported as “++ (51-75% degradation)”. With `CNC(=O)c1nnc(NC(=O)CCN2CC(CN3CCN(C4CCN(c5ccc6c(c5)C(=O)N(C5CCC(=O)NC5=O)C6=O)CC4)CC3)C2)cc1Nc1cccc(-c2ncn(C)n2)c1OC` (stereo not shown) [PROTAC 7, 6-(3-(3-((4-(1-(2-(2,6-Dioxopiperidin-3-yl)-1,3-dioxoisoindolin-5-yl)piperidin-4-yl)piperazin-1-yl)methyl)azetidin-1-yl)propanamido)-4-((2-methoxy-3-(1-methyl-1H-1,2,4-triazol-3-yl)phenyl)amino)-N-methylpyridazine-3-carboxamide] the “Tyk2 Degradation Score” value was “+++ (>75% degradation)”. With `CNC(=O)c1nnc(NC(=O)CCN2CCC(CCCN3CCN(c4ccc5c(c4)C(=O)N(C4CCC(=O)NC4=O)C5=O)CC3)CC2)cc1Nc1cccc(-c2ncn(C)n2)c1OC` (stereo not shown) [PROTAC 8, 6-(3-(4-(3-(4-(2-(2,6-Dioxopiperidin-3-yl)-1,3-dioxoisoindolin-5-yl)piperazin-1-yl)propyl)piperidin-1-yl)propanamido)-4-((2-methoxy-3-(1-methyl-1H-1,2,4-triazol-3-yl)phenyl)amino)-N-methylpyridazine-3-carboxamide] the “Tyk2 Degradation Score” value was “+++ (>75% degradation)”. For `CNC(=O)c1nnc(NC(=O)CCN2CCC(CCC3CCN(c4ccc(Oc5ccc6c(c5)C(=O)N(C5CCC(=O)NC5=O)C6=O)cc4)CC3)CC2)cc1Nc1cccc(-c2ncn(C)n2)c1OC` (stereo not shown) [PROTAC 9, 6-(3-(4-(2-(1-(4-((2-(2,6-Dioxopiperidin-3-yl)-1,3-dioxoisoindolin-5-yl)oxy)phenyl)piperidin-4-yl)ethyl)piperidin-1-yl)propanamido)-4-((2-methoxy-3-(1-methyl-1H-1,2,4-triazol-3-yl)phenyl)amino)-N-methylpyridazine-3-carboxamide], the “Tyk2 Degradation Score” value was “++ (51-75% degradation)”. For `CNC(=O)c1nnc(NC(=O)CCN2CCC(CNc3ccc4c(c3)C(=O)N(C3CCC(=O)NC3=O)C4=O)CC2)cc1Nc1cccc(-c2ncn(C)n2)c1OC` (stereo not shown) [PROTAC 10, 6-(3-(4-(((2-(2,6-Dioxopiperidin-3-yl)-1,3-dioxoisoindolin-5-yl)amino)methyl)piperidin-1-yl)propanamido)-4-((2-methoxy-3-(1-methyl-1H-1,2,4-triazol-3-yl)phenyl)amino)-N-methylpyridazine-3-carboxamide], the “Tyk2 Degradation Score” value was “++ (51-75% degradation)”.

— patent US20260035356A1, “MODULATORS OF TYK2 PROTEOLYSIS AND ASSOCIATED METHODS OF USE” (Arvinas Operations, Inc., priority 2022, published 2026)
